Reference: ChEMBL document CHEMBL5120936, “S-Protected Cysteine Sulfoxide-Enabled Tryptophan-Selective Modification with Application to Peptide Lipidation” (ACS Med Chem Lett, 2022)
Calls of active or inactive are those of the source. The rule behind the calls is not given here.

Key:
Assay type in all cases: functional, organism-based
Conditions in all cases: dose 500.0 µg/kg
Mus musculus [1] = assay: Hypoglycemic activity in sixteen hrs fasted wild type C57BL/6 mouse assessed as reduction in blood glucose level at 500 microg/kg, ip followed by oral glucose at 2 g/Kg and measured for 150 mins by OGTT
Mus musculus [2] = assay: Hypoglycemic activity in sixteen hrs fasted wild type C57BL/6 mouse assessed as reduction in blood glucose level at 500 microg/kg, ip followed by oral glucose at 2 g/Kg and measured for 120 mins by OGTT
Mus musculus [3] = assay: Hypoglycemic activity in sixteen hrs fasted wild type C57BL/6 mouse assessed as increase in insulin concentration at 500 microg/kg, ip followed by oral glucose at 2 g/Kg and measured upto 150 mins by OGTT
Mus musculus [4] = assay: Hypoglycemic activity in sixteen hrs fasted wild type C57BL/6 mouse assessed as reduction in glucose concentration at 500 microg/kg, ip followed by oral glucose at 2 g/Kg and measured upto 150 mins by OGTT

CCCCCCCCCCCCCCCC(=O)NCCOCCOCCOCCOCCOCCOCC(=O)N[C@@H](CSc1[nH]c2ccccc2c1C[C@H](NC(=O)[C@H](C)NC(=O)[C@@H](NC(=O)[C@H](Cc1ccccc1)NC(=O)[C@H](CCC(=O)O)NC(=O)[C@H](CCCCN)NC(=O)[C@H](C)NC(=O)[C@H](C)NC(=O)[C@H](CCC(N)=O)NC(=O)CNC(=O)[C@H](CCC(=O)O)NC(=O)[C@H](CC(C)C)NC(=O)[C@H](Cc1ccc(O)cc1)NC(=O)[C@H](CO)NC(=O)[C@H](CO)NC(=O)[C@@H](NC(=O)[C@H](CC(=O)O)NC(=O)[C@H](CO)NC(=O)[C@@H](NC(=O)[C@H](Cc1ccccc1)NC(=O)[C@@H](NC(=O)CNC(=O)[C@H](CCC(=O)O)NC(=O)[C@H](C)NC(=O)[C@@H](N)Cc1cnc[nH]1)[C@@H](C)O)[C@@H](C)O)C(C)C)[C@@H](C)CC)C(=O)N[C@@H](CC(C)C)C(=O)N[C@H](C(=O)N[C@@H](CCCCN)C(=O)NCC(=O)N[C@@H](CCCNC(=N)N)C(=O)NCC(=O)O)C(C)C)C(N)=O
Activity (Mus musculus [1]): Active | Activity (Mus musculus [2]): Active

CC[C@H](C)[C@H](NC(=O)[C@H](Cc1ccccc1)NC(=O)[C@H](CCC(=O)O)NC(=O)[C@H](CCCCN)NC(=O)[C@H](C)NC(=O)[C@H](C)NC(=O)[C@H](CCC(N)=O)NC(=O)CNC(=O)[C@H](CCC(=O)O)NC(=O)[C@H](CC(C)C)NC(=O)[C@H](Cc1ccc(O)cc1)NC(=O)[C@H](CO)NC(=O)[C@H](CO)NC(=O)[C@@H](NC(=O)[C@H](CC(=O)O)NC(=O)[C@H](CO)NC(=O)[C@@H](NC(=O)[C@H](Cc1ccccc1)NC(=O)[C@@H](NC(=O)CNC(=O)[C@H](CCC(=O)O)NC(=O)[C@H](C)NC(=O)[C@@H](N)Cc1c[nH]cn1)[C@@H](C)O)[C@@H](C)O)C(C)C)C(=O)N[C@@H](C)C(=O)N[C@@H](Cc1c[nH]c2ccccc12)C(=O)N[C@@H](CC(C)C)C(=O)N[C@H](C(=O)N[C@@H](CCCCN)C(=O)NCC(=O)N[C@@H](CCCN=C(N)N)C(=O)NCC(=O)O)C(C)C
Activity (Mus musculus [3]): Active | Activity (Mus musculus [4]): Active

CCCCCCCCCCCCCCCC(=O)NCCOCCOCC(=O)N[C@@H](CSc1[nH]c2ccccc2c1C[C@H](NC(=O)[C@H](C)NC(=O)[C@@H](NC(=O)[C@H](Cc1ccccc1)NC(=O)[C@H](CCC(=O)O)NC(=O)[C@H](CCCCN)NC(=O)[C@H](C)NC(=O)[C@H](C)NC(=O)[C@H](CCC(N)=O)NC(=O)CNC(=O)[C@H](CCC(=O)O)NC(=O)[C@H](CC(C)C)NC(=O)[C@H](Cc1ccc(O)cc1)NC(=O)[C@H](CO)NC(=O)[C@H](CO)NC(=O)[C@@H](NC(=O)[C@H](CC(=O)O)NC(=O)[C@H](CO)NC(=O)[C@@H](NC(=O)[C@H](Cc1ccccc1)NC(=O)[C@@H](NC(=O)CNC(=O)[C@H](CCC(=O)O)NC(=O)[C@H](C)NC(=O)[C@@H](N)Cc1cnc[nH]1)[C@@H](C)O)[C@@H](C)O)C(C)C)[C@@H](C)CC)C(=O)N[C@@H](CC(C)C)C(=O)N[C@H](C(=O)N[C@@H](CCCCN)C(=O)NCC(=O)N[C@@H](CCCNC(=N)N)C(=O)NCC(=O)O)C(C)C)C(N)=O
Activity (Mus musculus [1]): Active | Activity (Mus musculus [2]): Active
